In ChEMBL document CHEMBL4808249, “Total synthesis and biological evaluation of 7-hydroxyneolamellarin A as hypoxia-inducible factor-1α inhibitor for cancer therapy” (Bioorg Med Chem Lett, 2021):
Activity calls are given as the source filed them. The calls are words filed in the database; no cut-off is given here.

Experiments:
[1] = Toxicity in BALB/c mouse xenografted with mouse 4T1 cells assessed as effect on heart morphology at 15 mg/kg, ip administered every 2 days starting from day 7 post-inoculation and measured on day 24 by Hematoxyin-eosin staining based analysis; assay type: organism-based; conditions: in vivo, 432 h, time 18 day
[2] = Toxicity in BALB/c mouse xenografted with mouse 4T1 cells assessed as effect on spleen morphology at 15 mg/kg, ip administered every 2 days starting from day 7 post-inoculation and measured on day 24 by Hematoxyin-eosin staining based analysis; assay type: organism-based; conditions: in vivo, 432 h, time 18 day
4T1 [3] = assay: Antitumor activity against mouse 4T1 cells xenografted in BALB/c mouse assessed as tumor growth inhibition at 15 mg/kg, ip administered every 2 days starting from day 7 post-inoculation and measured on day 24; assay type: functional, organism-based; conditions: time 18.0 day
[4] = Toxicity in BALB/c mouse xenografted with mouse 4T1 cells assessed as effect on liver morphology at 15 mg/kg, ip administered every 2 days starting from day 7 post-inoculation and measured on day 24 by Hematoxyin-eosin staining based analysis; assay type: organism-based; conditions: in vivo, 432 h, time 18 day
[5] = Toxicity in BALB/c mouse xenografted with mouse 4T1 cells assessed as effect on body weight at 15 mg/kg, ip administered every 2 days starting from day 7 post-inoculation and measured on day 24; assay type: organism-based; conditions: in vivo, 432 h, time 18 day
[6] = Toxicity in BALB/c mouse xenografted with mouse 4T1 cells assessed as effect on kidney morphology at 15 mg/kg, ip administered every 2 days starting from day 7 post-inoculation and measured on day 24 by Hematoxyin-eosin staining based analysis; assay type: organism-based; conditions: in vivo, 432 h, time 18 day
HeLa [7] = assay: Cytotoxicity against human HeLa cells assessed as cell viability at 6.3 to 150 umol/L incubated under hypoxia condition for 24 hrs by MTT assay; assay type: cell-based; conditions: dose 6.3-150 µmol/L
[8] = Toxicity in BALB/c mouse xenografted with mouse 4T1 cells assessed as effect on body weight at 15 mg/kg, iv administered every 2 days starting from day 7 post-inoculation and measured on day 24; assay type: organism-based; conditions: in vivo, 432 h, time 18 day
HeLa [9] = assay: Downregulation of HIF-1 alpha expression in human HeLa cells assessed as half life of the protein at 150 umol/L incubated under CoCl2-stimulated hypoxia conditions for 4 hrs followed by incubation with compound and protein translation inhibitor, CHX under normoxia conditions for 240 mins by Western blot analysis (reference value: 33.4 mins); assay type: functional, cell-based; conditions: dose 150.0 µmol/L
[10] = biological target: T1, Hypoxia-inducible factor 1-alpha (Homo sapiens, UniProt Q16665); assay: Inhibition of HIF-1alpha in human HeLa cells transfected with HRE-driven firefly luciferase gene pretreated with compound followed by incubation under normoxic condition for 1 hr followed by hypoxic condition for 12 hrs by dual luciferase reporter gene assay; assay type: cell-based
HeLa [11] = assay: Antiinvasive activity in human HeLa cells assessed as inhibition of cell invasion at 50 to 150 umol/L incubated under hypoxia condition for 36 hrs by transwell invasion assay; assay type: functional, cell-based; conditions: dose 50-150 µmol/L
HeLa [12] = assay: Inhibition of colony formation in human HeLa cells incubated under hypoxia condition for 10 days; assay type: functional, cell-based; conditions: dose 5-50 µmol/L, time 10.0 day
[13] = Toxicity in BALB/c mouse xenografted with mouse 4T1 cells assessed as effect on liver morphology at 15 mg/kg, iv administered every 2 days starting from day 7 post-inoculation and measured on day 24 by Hematoxyin-eosin staining based analysis; assay type: organism-based; conditions: in vivo, 432 h, time 18 day
[14] = biological target: T1, Hypoxia-inducible factor 1-alpha; assay: Inhibition of HIF-1alpha in human HeLa cells assessed as reduction in VEGF mRNA level incubated under hypoxia condition for 12 hrs by RT-PCR analysis; assay type: cell-based; conditions: dose 25-100 µmol/L
Target sequence in this assay (Q16665 whole entry, looked up): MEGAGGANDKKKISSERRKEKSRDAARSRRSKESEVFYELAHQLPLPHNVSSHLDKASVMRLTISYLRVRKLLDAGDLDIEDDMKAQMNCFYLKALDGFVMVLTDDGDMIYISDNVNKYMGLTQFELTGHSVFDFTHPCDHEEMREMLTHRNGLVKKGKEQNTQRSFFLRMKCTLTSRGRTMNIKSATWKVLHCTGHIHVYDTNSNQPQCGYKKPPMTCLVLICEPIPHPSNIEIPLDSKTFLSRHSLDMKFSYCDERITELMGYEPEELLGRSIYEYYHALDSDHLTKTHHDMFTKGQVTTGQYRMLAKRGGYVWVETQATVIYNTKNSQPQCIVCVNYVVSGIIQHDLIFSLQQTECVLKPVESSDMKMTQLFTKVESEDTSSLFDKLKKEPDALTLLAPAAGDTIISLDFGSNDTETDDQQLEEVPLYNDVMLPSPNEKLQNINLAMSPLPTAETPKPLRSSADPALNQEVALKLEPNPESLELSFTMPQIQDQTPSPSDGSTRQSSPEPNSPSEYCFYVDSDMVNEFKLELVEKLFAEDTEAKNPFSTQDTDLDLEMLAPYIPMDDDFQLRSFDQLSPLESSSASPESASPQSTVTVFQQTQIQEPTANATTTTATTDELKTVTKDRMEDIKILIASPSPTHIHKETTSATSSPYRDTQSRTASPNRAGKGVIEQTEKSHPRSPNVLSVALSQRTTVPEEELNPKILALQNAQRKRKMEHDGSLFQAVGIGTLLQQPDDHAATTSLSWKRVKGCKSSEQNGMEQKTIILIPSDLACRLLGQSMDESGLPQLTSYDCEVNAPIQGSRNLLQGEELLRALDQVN

HeLa [15] = assay: Downregulation of HIF-1alpha expression in human HeLa cells at 50 to 150 umol/L incubated under hypoxia condition for 4 hrs by immunofluorescence analysis; assay type: functional, cell-based; conditions: dose 50-150 µmol/L
HeLa [16] = assay: Downregulation of HIF-1 alpha expression in human HeLa cells at 100 to 150 umol/L incubated under hypoxia conditions for 4 hrs in presence of proteasome inhibitor, MG132 by Western blot analysis; assay type: functional, cell-based; conditions: dose 100-150 µmol/L
HeLa [17] = assay: Downregulation of HIF-1beta expression in human HeLa cells at 50 to 150 umol/L incubated under hypoxia conditions for 4 hrs by western blot analysis; assay type: functional, cell-based; conditions: dose 50-150 µmol/L
[18] = Toxicity in BALB/c mouse xenografted with mouse 4T1 cells assessed as effect on heart morphology at 15 mg/kg, iv administered every 2 days starting from day 7 post-inoculation and measured on day 24 by Hematoxyin-eosin staining based analysis; assay type: organism-based; conditions: in vivo, 432 h, time 18 day
HUVEC = assay: Inhibition of angiogenesis in human HUVEC cells assessed as disruption of tube formation at 150 umol/L incubated under hypoxia condition for 6 hrs by Matrigel based analysis; assay type: functional, cell-based; conditions: dose 150.0 µmol/L
[19] = Toxicity in BALB/c mouse xenografted with mouse 4T1 cells assessed as effect on spleen morphology at 15 mg/kg, iv administered every 2 days starting from day 7 post-inoculation and measured on day 24 by Hematoxyin-eosin staining based analysis; assay type: organism-based; conditions: in vivo, 432 h, time 18 day
HeLa [20] = assay: Downregulation of HIF-1 alpha expression in human HeLa cells at 50 to 150 umol/L incubated under hypoxia conditions for 4 hrs by Western blot analysis; assay type: functional, cell-based; conditions: dose 50-150 µmol/L
4T1 [21] = assay: Antitumor activity against mouse 4T1 cells xenografted in BALB/c mouse assessed as tumor growth inhibition at 15 mg/kg, iv administered every 2 days starting from day 7 post-inoculation and measured on day 24; assay type: functional, organism-based; conditions: time 18.0 day
HeLa [22] = assay: Downregulation of HIF-1 alpha expression in human HeLa cells at 50 to 150 umol/L incubated under normoxia conditions for 4 hrs in presence of CoCl2 by Western blot analysis; assay type: functional, cell-based; conditions: dose 50-150 µmol/L
HeLa [23] = assay: Cytotoxicity against human HeLa cells assessed as cell viability at 6.3 to 150 umol/L incubated under normoxic conditions for 24 hrs by MTT assay; assay type: cell-based; conditions: dose 6.3-150 µmol/L
[24] = Toxicity in BALB/c mouse xenografted with mouse 4T1 cells assessed as effect on kidney morphology at 15 mg/kg, iv administered every 2 days starting from day 7 post-inoculation and measured on day 24 by Hematoxyin-eosin staining based analysis; assay type: organism-based; conditions: in vivo, 432 h, time 18 day
4T1 [25] = assay: Downregulation of HIF-1alpha expression in mouse 4T1 cells at 50 to 150 umol/L incubated under hypoxia condition for 4 hrs by Western blot analysis; assay type: functional, cell-based; conditions: dose 50-150 µmol/L
HeLa [26] = assay: Inhibition of cell migration in human HeLa cells at 10 to 50 umol/L incubated under hypoxia condition for 36 hrs by wound healing assay; assay type: functional, cell-based; conditions: dose 10-50 µmol/L
MCF7 = assay: Downregulation of HIF-1alpha expression in human MCF7 cells at 50 to 150 umol/L incubated under hypoxia condition for 4 hrs by Western blot analysis; assay type: functional, cell-based; conditions: dose 50-150 µmol/L
4T1 [27] = assay: Downregulation of HIF-1alpha protein expression in tumor tissue of BALB/c mouse xenografted with mouse 4T1 cells at 15 mg/kg, iv administered every 2 days starting from day 7 post-inoculation and measured on day 24 by immunofluorescence analysis; assay type: functional, organism-based; conditions: time 18.0 day

C=CCNC1=C2C[C@@H](C)C[C@H](OC)[C@H](O)[C@@H](C)/C=C(\C)[C@H](OC(N)=O)[C@@H](OC)/C=C\C=C(/C)C(=O)NC(=CC1=O)C2=O (stereo in doubt) [TANESPIMYCIN]
Activity [1]: Non-Toxic | Activity [2]: Non-Toxic | Activity (4T1 [3]): Active | Activity [4]: Non-Toxic | Activity [5]: Non-Toxic | Activity [6]: Non-Toxic

O=C(C(O)c1ccc(O)cc1)n1cc(-c2ccc(O)cc2)c(-c2ccc(O)cc2)c1 (stereo not given) [7-(R/S)-HYDROXYLAMELLARIN A]
Activity (HeLa [7]): Non-Toxic | Activity [8]: Non-Toxic | T1/2 (HeLa [9]): 10.4 min | IC50 [10]: 23 µM | inhibition ([10]; time 13.0 hrs): Dose-Dependent Effect | Activity (HeLa [11]): Active | inhibition (HeLa [12]): Dose-Dependent Effect | Activity [13]: Non-Toxic | inhibition [14]: Dose-Dependent Effect | inhibition (HeLa [15]): Active | inhibition (HeLa [16]): Active | inhibition (HeLa [17]): inactive | Activity [18]: Non-Toxic | inhibition (HUVEC): Active | Activity [19]: Non-Toxic | inhibition (HeLa [20]): Active | Activity (4T1 [21]): Active | inhibition (HeLa [22]): Active | Activity (HeLa [23]): Non-Toxic | Activity [24]: Non-Toxic | inhibition (4T1 [25]): Active | inhibition (HeLa [26]): Active | inhibition (MCF7): Active | inhibition (4T1 [27]): Active
